Where two headings read alike, the source gives them in different places.
Experiments:
[1] = tested on: Z. mobilis; assay: Bioscreen growth of Z. mobilis with pretreatment inhibitors (strain not specified); format: cell-based, Zymomonas mobilis; conditions: for Relative inhibitory effect on Z. mobilis among vanillin, furfural and HMF: Table 4 conditions; for Time to complete active growth and reach the stationary phase: in the presence of the inhibitor, 11 h without any inhibitor (FIGS. 5A-5D)
Procedure: FIGS. 5A-5E. Z. mobilis Hfq conferred tolerance to different classes of pretreatment inhibitors. Z. mobilis strains were grown in RM (pH 5.0) overnight, 5-μL culture were then transferred into 250-μL RM media in the Bioscreen plate. The growth differences of different strains were monitored by Bioscreen (Growth Curves USA, NJ) under anaerobic conditions in RM, pH 5.0 (A), RM with 1 g/L vanillin, pH 5.0 (B), 1 g/L furfural, pH 5.0 (C), 1 g/L HMF, pH 5.0 (D) and 0.001% H2O2 (E). Strains included in this study are: ZM4: Zymomonas mobilis ZM4 wild-type; AcR: ZM4 acetate tolerant mutant; AcRIM0347: AcR insertional mutant of ZMO0347; AcRIM0347 (p42-0347): AcRIM0347 containing gateway plasmid p42-0347 over-expressing ZM4 gene ZMO0347. This experiment has been repeated at least three times with similar result for hydrogen peroxide growth and in duplicate for the vanillin growth.
(§1) American Type Culture Collection (ATCC31821) and the Z. mobilis acetate tolerant strain AcR has been described previously (Joachimsthal et al. 2000). ZM4 and AcR were cultured in RM medium at 30° C. S. cerevisiae wild-type, deletion mutant and GST-fusion ORF over-expression strains were obtained through Open Biosystems (Huntsville, Ala.). S. cerevisiae strains were cultured in rich YPD media. CM media with 2% glucose was used for S. cerevisiae wild-type and S. cerevisiae deletion mutants, CM media with 2% glucose minus uracil was used for S. cerevisiae GST-over expressing strains, 2% galactose was used to induce the GST-fusion strains. Plasmid-containing strains were routinely grown with antibiotics at the following concentrations (μg/mL): kanamycin of 50 for E. coli and 200 for ZM4; tetracycline, 10 for E. coli and 20 for ZM4; and gentamicin, 10 for E. coli. G418 of 200 for S. cerevisiae YKO deletion mutants. Growth was monitored turbidometrically by measuring optical density at 600nm periodically with the Bioscreen C automated microbiology growth curve analysis system (Growth Curve USA, Piscataway, N.J.).

[2] = tested on: Zymomonas mobilis ZM4 wild-type; assay: Bioscreen growth of Z. mobilis ZM4 wild-type in RM with inhibitors; format: cell-based; conditions: for Final Cell Density / Growth rate: ZM4
Procedure: (§2) FIGS. 3A-3C. […] Z. mobilis strains were grown in RM (pH5.0) overnight, 20-μL culture were then transferred into 250-μL, RM media in the Bioscreen plate. […] Strains included in this study are: ZM4: Zymomonas mobilis ZM4 wild-type; AcR: ZM4 acetate tolerant mutant (Joachimstahl 1998); ZM4 (p42-0347): ZM4 containing a gateway plasmid p42-0347 over-expressing ZM4 gene ZMO0347; AcRIM0347: AcR insertional mutant of ZMO0347; AcRIM0347 (p42-0347): AcRIM0347 containing gateway plasmid p42-0347 over-expressing ZM4 gene ZMO0347. […] Triplicates were used for each condition.
(§3) FIGS. 4A-4E. […] Z. mobilis strains were grown in RM (pH5.0) overnight, 5-μL culture were then transferred into 250-μL RM media in the Bioscreen plate. […] Strains included in this study are: ZM4: Zymomonas mobilis ZM4 wild-type; AcR: ZM4 acetate tolerant mutant; ZM4 (p42-0347): ZM4 containing a gateway plasmid p42-0347 to express ZM4 gene ZMO0347; AcRIM0347: AcR insertional mutant of ZMO0347; AcRIM0347 (p42-0347): AcRIM0347 containing gateway plasmid p42-0347. […] Duplicate biological replicates were used for each condition.
(§4) FIGS. 5A-5E. […] Z. mobilis strains were grown in RM (pH 5.0) overnight, 5-μL culture were then transferred into 250-μL RM media in the Bioscreen plate. […] Strains included in this study are: ZM4: Zymomonas mobilis ZM4 wild-type; AcR: ZM4 acetate tolerant mutant; AcRIM0347: AcR insertional mutant of ZMO0347; AcRIM0347 (p42-0347): AcRIM0347 containing gateway plasmid p42-0347 over-expressing ZM4 gene ZMO0347.
as §1

[3] = tested on: S. cerevisiae Lsm protein over-expressing strains; assay: Bioscreen growth of S. cerevisiae Lsm protein over-expressing (GST) strains with inhibitors; format: cell-based
Procedure: (§5) FIGS. 6A-6B. […] S. cerevisiae strains were grown in CM with 2% glucose for wild-type BY4741 and the deletion mutants, CM with 2% glucose minus uracil for GST over-expression strains. Five-μL culture was then transferred into 300-μL CM broth in the Bioscreen plate.
(§6) FIGS. 7A-7P. […] S. cerevisiae strains were grown in CM with 2% glucose (CM+glucose) for wild-type BY4741 and the deletion mutants, CM with 2% glucose and 2% galactose minus uracil (CM+glucose+2% galactose) for GST overexpression strains. A 5-μL culture was then transferred into 250-μL CM broth in the Bioscreen plate.
as §1

[4] = tested on: AcRIM0347: AcR insertional mutant of ZMO0347; format: cell-based, Zymomonas mobilis; conditions: for Final Cell Density / Growth rate: AcRIM0347
Procedure: as §2, §3, §4, §1

[5] = tested on: AcR: ZM4 acetate tolerant mutant; format: cell-based, Zymomonas mobilis; conditions: for Final Cell Density / Growth rate: AcR
Procedure: as §2, §3, §4, §1

[6] = tested on: AcRIM0347 (p42-0347); format: cell-based, Zymomonas mobilis; conditions: for Lag phase of AcRIM0347 (p42-0347) versus AcRIM0347 grown with inhibitor: Table 4, FIGS. 5A-5D
Procedure: as §2, §3, §4, §1

[7] = tested on: S. cerevisiae Lsm deletion mutants; format: cell-based; conditions: 305 mM NaCl in CM broth
Procedure: as §5, §6
American Type Culture Collection (ATCC31821) and the Z. mobilis acetate tolerant strain AcR has been described previously (Joachimsthal et al. 2000). ZM4 and AcR were cultured in RM medium at 30° C. S. cerevisiae wild-type, deletion mutant and GST-fusion ORF over-expression strains were obtained through Open Biosystems (Huntsville, Ala.). S. cerevisiae strains were cultured in rich YPD media. […] Growth was monitored turbidometrically by measuring optical density at 600nm periodically with the Bioscreen C automated microbiology growth curve analysis system (Growth Curve USA, Piscataway, N.J.).

[8] = tested on: ZM4 (p42-0347); assay: Bioscreen growth of ZM4 (p42-0347) in RM with sodium and acetate ions; format: cell-based, Zymomonas mobilis; conditions: ZM4 (p42-0347); RM pH 5.0 supplemented with 195 mM of the chemical, anaerobic
Procedure: as §2, §3, §1

[9] = RM with HMF 0.75 g/L, furfural or vanillin 1 g/L
[10] = AcRIM0347(p42-0347), RM with HMF 0.75 g/L, furfural or vanillin 1 g/L
[11] = RM pH 5.0 supplemented with 195 mM of the chemical, anaerobic, NA = lack of growth
[12] = RM pH 5.0 supplemented with 195 mM of the chemical, anaerobic
[13] = AcRIM0347 (p42-0347), RM pH 5.0 supplemented with 195 mM of the chemical, anaerobic

| SMILES | Time to complete active growth and reach the stationary phase [1] | Final Cell Density [2, 9] | Growth rate [2, 9] | Final Cell Density [4, 9] | Growth rate [4, 9] | Final Cell Density [5, 9] | Growth rate [5, 9] | Final Cell Density [6, 10] | Growth rate [6, 10] | Lag phase of AcRIM0347 (p42-0347) versus AcRIM0347 grown with inhibitor [6] | Final Cell Density [2, 11] | Growth rate [2, 11] | Final Cell Density [8] | Growth rate [8] | Final Cell Density [5, 12] | Growth rate [5, 12] | Final Cell Density [6, 13] | Growth rate [6, 13] | further results |
| --- | --- | --- | --- | --- | --- | --- | --- | --- | --- | --- | --- | --- | --- | --- | --- | --- | --- | --- | --- |
| O=Cc1ccc(CO)o1 [HMF, hydroxymethyl furfural] | about 16 h | 0.93 ± 0.003 OD600 nm | 0.36 ± 0.02 h⁻¹ | 0.67 ± 0.03 OD600 nm | 0.19 ± 0.02 h⁻¹ | 0.96 ± 0.006 OD600 nm | 0.35 ± 0.01 h⁻¹ | 0.78 ± 0.02 OD600 nm | 0.22 ± 0.001 h⁻¹ | shorter lag phases | – | – | – | – | – | – | – | – | Relative inhibitory effect on Z. mobilis among vanillin, furfural and HMF [1]: least effect; Growth of Lsm overexpression strains with inhibitor ([3]; 1.5 g/L): slight growth advantage |
| [Cl-].[Na+] [NaCl, sodium chloride] | – | – | – | – | – | – | – | – | – | – | 0.73 ± 0.01 OD600 nm | 0.24 ± 0.008 h⁻¹ | 0.84 ± 0.01 OD600 nm | 0.25 ± 0.008 h⁻¹ | 0.96 ± 0.01 OD600 nm | 0.29 ± 0.005 h⁻¹ | 0.72 ± 0.02 OD600 nm | 0.22 ± 0.009 h⁻¹ | Growth differences between Lsm mutants and wild-type BY4741 [7]: not observed; Relative inhibitory effect on wild-type Z. mobilis growth among sodium and acetate salts ([2]; 195 mM in RM): least negative influence; Growth of Lsm overexpression strains compared to wild-type BY4741 ([3]; 305 mM NaCl): grew similarly to wild-type BY4741; Reduction of growth rate and final cell density of AcRIM0347 compared to parental strain AcR ([4]; 195 mM in RM): reduced by at least a quarter; Final Cell Density [4, 11]: 0.73 ± 0.03 OD600 nm; Growth rate [4, 11]: 0.21 ± 0.008 h⁻¹ |
| O=Cc1ccco1 [Furfural, furfural] | ~19 h | 0.88 ± 0.006 OD600 nm | 0.31 ± 0.01 h⁻¹ | 0.67 ± 0.001 OD600 nm | 0.19 ± 0.03 h⁻¹ | 0.89 ± 0.009 OD600 nm | 0.30 ± 0.005 h⁻¹ | 0.80 ± 0.02 OD600 nm | 0.20 ± 0.01 h⁻¹ | shorter lag phases | – | – | – | – | – | – | – | – | Growth of Lsm overexpression strains with inhibitor ([3]; 1.5 g/L): slight growth advantage |
| CC(=O)[O-].[K+] [Kac, potassium acetate] | – | – | – | – | – | – | – | – | – | – | 0.42 ± 0.002 OD600 nm | 0.15 ± 0.004 h⁻¹ | 0.34 ± 0.004 OD600 nm | 0.12 ± 0.006 h⁻¹ | 0.40 ± 0.000 OD600 nm | 0.12 ± 0.000 h⁻¹ | 0.28 ± 0.007 OD600 nm | 0.09 ± 0.003 h⁻¹ | Growth of hfq mutant AcRIM0347 in the presence of acetate salt ([4]; 195 mM in RM): unable to grow |
| COc1cc(C=O)ccc1O [Vanillin, vanillin] | ~21 h | 0.69 ± 0.006 OD600 nm | 0.26 ± 0.001 h⁻¹ | 0.66 ± 0.01 OD600 nm | 0.20 ± 0.006 h⁻¹ | 0.71 ± 0.01 OD600 nm | 0.26 ± 0.01 h⁻¹ | 0.70 ± 0.01 OD600 nm | 0.20 ± 0.003 h⁻¹ | shorter lag phases | – | – | – | – | – | – | – | – | Relative inhibitory effect on Z. mobilis among vanillin, furfural and HMF [1]: most significant inhibitory effect; Growth of Lsm overexpression strains with inhibitor ([3]; 0.75 g/L): detrimental effect on growth |
| CC(=O)O.N [NH4OAc, ammonium acetate] | – | – | – | – | – | – | – | – | – | – | 0.43 ± 0.01 OD600 nm | 0.20 ± 0.008 h⁻¹ | 0.37 ± 0.008 OD600 nm | 0.19 ± 0.007 h⁻¹ | 0.42 ± 0.006 OD600 nm | 0.19 ± 0.005 h⁻¹ | 0.32 ± 0.007 OD600 nm | 0.22 ± 0.002 h⁻¹ | Growth of hfq mutant AcRIM0347 in the presence of acetate salt ([4]; 195 mM in RM): unable to grow |
| OO [H2O2, hydrogen peroxide] | – | – | – | – | – | – | – | – | – | – | – | – | – | – | – | – | – | – | Growth of ZM4 in RM medium with H2O2 ([2]; 0.001% H2O2): grew well; Growth of AcRIM0347 in RM medium with H2O2 ([4]; 0.001% H2O2): no observable growth; Growth of AcR in RM medium with H2O2 ([5]; 0.001% H2O2): grew well; Growth of AcRIM0347(p42-0347) in RM medium with H2O2 ([6]; 0.001% H2O2): to grow |

Source: patent US8790902B2, “Microorganisms having enhanced tolerance to inhibitors and stress” (UT-Batelle, LLC, priority 2009, dated 2014)
